Where a chain is given by its changes, count along the chain named. Calls of active or inactive are those of the source. No cut-off for these calls is given here.
How the values were obtained:
[1] = test system: T1, General amino-acid permease GAP1 (Saccharomyces cerevisiae), P19145 [I384C]; assay: Activation of yeast Gap1 I384C mutant-mediated amino acid uptake at 10 mM
T1 sequence (whole entry): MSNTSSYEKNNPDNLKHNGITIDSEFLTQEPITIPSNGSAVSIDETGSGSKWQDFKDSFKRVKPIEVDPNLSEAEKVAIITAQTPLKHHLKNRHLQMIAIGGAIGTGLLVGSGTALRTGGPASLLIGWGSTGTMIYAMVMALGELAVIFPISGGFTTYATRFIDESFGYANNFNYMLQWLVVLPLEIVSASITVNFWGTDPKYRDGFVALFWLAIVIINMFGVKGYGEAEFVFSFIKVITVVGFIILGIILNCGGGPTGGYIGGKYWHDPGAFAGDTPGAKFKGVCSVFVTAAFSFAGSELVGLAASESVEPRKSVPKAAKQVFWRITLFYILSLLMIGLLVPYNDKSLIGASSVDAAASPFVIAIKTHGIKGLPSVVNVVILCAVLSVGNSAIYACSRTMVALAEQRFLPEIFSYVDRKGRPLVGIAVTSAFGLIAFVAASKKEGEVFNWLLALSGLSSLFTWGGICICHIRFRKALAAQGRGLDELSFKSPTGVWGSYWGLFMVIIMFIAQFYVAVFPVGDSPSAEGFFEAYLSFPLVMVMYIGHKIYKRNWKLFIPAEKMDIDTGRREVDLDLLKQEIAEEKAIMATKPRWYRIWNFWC

[2] = molecular target: T2, General amino-acid permease GAP1 (Saccharomyces cerevisiae) (UniProt P19145); assay: Induction of nitrogen-starved wild type sigma1278b yeast Gap1-mediated amino acid uptake at 2 mM in presence of 10 mM MTSEA treated before compound addition
T2 sequence (whole entry): T1 sequence (whole entry) with C384I

[3] = test system: T3, General amino-acid permease GAP1 (Saccharomyces cerevisiae), P19145 [A393C]; assay: Induction of yeast Gap1 A393C mutant-mediated […] activation at 2 mM in presence of 10 mM MTSEA treated before compound addition
T3 sequence (whole entry): T1 sequence (whole entry) with C384I, A393C

[4] = test system: T4, General amino-acid permease GAP1 (Saccharomyces cerevisiae), P19145 [S398C]; assay: Induction of yeast Gap1 S398C mutant-mediated trehalose activation at 2 mM in presence of 10 mM MTSEA treated before compound addition
T4 sequence (whole entry): T1 sequence (whole entry) with C384I, S398C

[5] = test system: General amino-acid permease GAP1 (Saccharomyces cerevisiae), P19145 [S388C]; assay: Induction of yeast Gap1 S388C mutant-mediated amino acid uptake at 2 mM in presence of 10 mM MTSEA treated before compound addition
Sequence of General amino-acid permease GAP1 (Saccharomyces cerevisiae), P19145 [S388C] (P19145 whole entry S388C): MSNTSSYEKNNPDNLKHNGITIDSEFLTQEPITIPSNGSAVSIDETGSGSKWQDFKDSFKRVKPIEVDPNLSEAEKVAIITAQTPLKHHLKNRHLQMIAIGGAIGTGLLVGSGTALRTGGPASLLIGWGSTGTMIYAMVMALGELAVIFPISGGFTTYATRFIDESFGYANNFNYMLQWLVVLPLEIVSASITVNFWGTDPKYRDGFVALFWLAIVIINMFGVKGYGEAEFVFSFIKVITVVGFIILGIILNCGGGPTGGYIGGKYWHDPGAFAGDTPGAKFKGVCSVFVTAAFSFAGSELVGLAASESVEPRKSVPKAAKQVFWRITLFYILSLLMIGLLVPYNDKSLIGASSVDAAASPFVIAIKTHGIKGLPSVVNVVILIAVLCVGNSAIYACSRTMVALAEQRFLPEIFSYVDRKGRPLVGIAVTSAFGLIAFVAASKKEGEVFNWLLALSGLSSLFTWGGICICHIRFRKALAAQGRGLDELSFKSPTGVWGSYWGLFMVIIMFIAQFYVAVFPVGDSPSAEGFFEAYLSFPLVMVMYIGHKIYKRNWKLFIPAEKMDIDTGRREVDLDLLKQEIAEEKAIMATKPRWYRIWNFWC

Activity [1]: inactive
inhibition [2]: Active
inhibition [3]: Active
inhibition [4]: Active
inhibition [5]: inactive
Compound: NC(=O)NCCC[C@H](N)C(=O)O

From ChEMBL document CHEMBL1221220, “Transport and signaling via the amino acid binding site of the yeast Gap1 amino acid transceptor” (Nat Chem Biol, 2009)
